For test [1], the target named is hH3R. Particulars: previously reported competition binding studies, cited from earlier work.
The target of test [2] is T1, human histamine H3 receptor (hH3R) (Homo sapiens, UniProt Q9Y5N1).
T1 construct: expressed in transfected cells; host or cells: HEK293T cells, transient transfection (hH3R in pcDEF3)
The experiment in a line: BRET between Venus-Gβ1γ2 and masGRK3ct-Nluc to measure hH3R-induced Gαi2 activation in HEK293T cells. Particulars: for agonist efficacy class in the Gβ1γ2 release assay: HEK293T cells co-expressing hH3R and Gαi2; for intrinsic activity (α) / pEC50 ± S.E.M.: hH3R-mediated Gαi2 activation in HEK293T cells; for inhibition of Venus-Gβ1γ2 recruitment to masGRK3ct-Nluc in response to 1 µM histamine: antagonist 10 µM; for pEC50 ± S.E.M.: BRET ratio after 10 min, mean ± S.E.M. of three experiments. The test is classed as cell-based. On the procedure: Cells were transiently transfected in a 10 cm^2 dish with plasmids coding for Venus155-239-Gβ1 (0.4 µg), Venus1-155-Gγ2 (0.4 µg), masGRK3ct-Nluc (0.4 µg), hH3R (0.4 µg), Gαi2-protein (1.2 µg), and empty pcDEF3 (2.2 µg) using 20 µg 25 kDa linear polyethylenimine (Polysciences Inc, Warrington, PA, USA), as previously described. The next day, 50,000 cells/well were transferred to a poly-L-lysine coated black 96 well plates (Greiner Bio-one GmbH, Frickenhausen, Germany) and grown for an additional 24 h.
(§1) Agonist-induced BRET between Venus-Gβ1γ2 and masGRK3ct-Nluc was measured on adherent HEK293T cells co-expressing hH3R and Gαi2 in the presence of NanoGlo® (3.2 µL/mL) using a Mithras LB940 multimode microplate reader (Berthold, Germany). Cells were stimulated with histamine in the absence and presence of antagonist in HBSS buffer, and BRET (540–40 nm) and luminescence (480–20 nm) signals were monitored either immediately or after 10 min at 25 °C. […] Next, cells were incubated in HBSS and stimulated with 10 μM imetit after various incubation times. BRET between Venus-G1βγ2 and masGRK3ct-Nluc was immediately measured upon imetit stimulation and BRET ratio after 10 s were plotted. Re-equilibration of pre-bound antagonists was measured upon pre-incubation of the cells with increasing concentrations of antagonist for one hour prior to the addition of increasing concentrations imetit or VUF8328 and BRET ratio was calculated either immediately after agonist addition (0–3 min) or after 10 min re-equilibration.
Ligand-induced BRET changes were calculated by dividing emission at 540–40 nm (Venus) by emission at 480–20 nm (Nluc) and baseline-corrected by subtracting BRET of vehicle. […] Agonist and antagonist concentration-response curves were fitted to three-parameter response models to obtain EC50 and IC50 values, respectively. […] For receptor recovery the vehicle corrected BRET ratio at 10 s after agonist addition was plotted over time.
On the technique in general: BRET reads energy transfer from a luciferase to a nearby fluorophore.

Test [3] deals with T1, human histamine H3 receptor (hH3R). The experiment in a line: Re-equilibration of pre-bound antagonist, Schild-plot analysis (BRET Gβ1γ2 release assay). The conditions noted are these: for type of antagonism after 10 min re-equilibration: VUF8328, 1 h antagonist pre-incubation; for type of antagonism, response measured directly following agonist stimulation: imetit or VUF8328, 1 h antagonist pre-incubation. The test is classed as cell-based. The procedure: Receptor-induced Venus-Gβ1γ2 recruitment to masGRK3ct-Nluc can be detected after different time intervals following stimulation with agonist, which offers the opportunity to evaluate the re-equilibration time of pre-bound antagonist within the same agonist-induced response. Cells were pre-incubated for 1 h with multiple concentrations of antagonist and subsequently stimulated with increasing concentrations agonist and BRET ratio was calculated either immediately after agonist addition or after 10 min re-equilibration (Figure 3A).
as §1
Equiactive agonist concentrations for Schild analysis were determined from concentration response curves at 10 % max agonist response (vide supra) in the absence and presence of increasing antagonist concentrations. Dose ratios (DR) were calculated by dividing the equiactive agonist concentration in the presence of antagonist by the equiactive agonist concentration in the absence of antagonist.

Another test concerns H3R. Set-up: method as in PMID 30249614, PMID 30359639. Particulars: intact HEK293T cells; cited from earlier work.
For test [4], the target named is T1, human histamine H3 receptor (hH3R). The experiment in a line: Recovery of hH3R responsiveness after washout of pre-bound antagonist (BRET Gβ1γ2 release assay). The conditions noted are these: for RecT (receptor recovery time, 1/krec): 1 h pre-incubation at 10 × IC50, washout, 10 µM imetit, measured in singlo; for recovery of H3R-induced Gβ1γ2 release to steady-state level upon washout: agonist stimulation after washout of pre-bound antagonist. In kind it is cell-based. On the procedure:
Cells were then stimulated with a saturating concentration of imetit (10 µM) after different time intervals and BRET changes between Venus-Gβ1γ2 and masGRK3ct-Nluc were measured directly and BRET ratio 10 s after agonist stimulation were plotted (Figure 2A,B).
as §1
The receptor recovery time (RecT) was calculated as the reciprocal of the krec.

Test [5] relates to hH3R. Set-up: method as in PMID 30249614. Particulars: CAMYEL biosensor; cited from earlier work.
The mark [6] stands for this setting: 1 h antagonist pre-incubation, agonist VUF8328, BRET after 10 min re-equilibration.
[7] abbreviates: 1 h antagonist pre-incubation, agonist VUF8328, BRET measured immediately.
The mark [8] stands for this setting: 1 h antagonist pre-incubation, agonist imetit, BRET measured immediately.

Read-outs that look alike come from different tables or passages of the source.

T1 sequence (Q9Y5N1 whole entry): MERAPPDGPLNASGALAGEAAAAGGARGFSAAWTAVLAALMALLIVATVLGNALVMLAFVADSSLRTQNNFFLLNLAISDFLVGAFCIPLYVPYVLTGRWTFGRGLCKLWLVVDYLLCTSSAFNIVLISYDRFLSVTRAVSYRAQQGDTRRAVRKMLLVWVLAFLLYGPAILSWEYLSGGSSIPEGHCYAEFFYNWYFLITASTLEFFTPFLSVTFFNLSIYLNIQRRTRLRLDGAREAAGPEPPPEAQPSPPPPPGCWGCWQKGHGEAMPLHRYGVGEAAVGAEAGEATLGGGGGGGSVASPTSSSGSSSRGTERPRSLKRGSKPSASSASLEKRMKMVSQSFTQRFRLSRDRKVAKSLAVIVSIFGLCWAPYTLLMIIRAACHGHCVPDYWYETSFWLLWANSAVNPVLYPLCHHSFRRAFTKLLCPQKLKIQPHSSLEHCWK

One may read the pKi as the negative decadic logarithm of the Ki, by convention in mol/L. In the case of `NCCc1c[nH]cn1` [Histamine, histamine], the pKi at hH3R [1] (agonists) is given as 6.7.
By EC50 is commonly meant the concentration giving half of the maximal effect. Low values mean a more potent agent, high ones a less potent agent. As for `N=C(N)SCCc1cnc[nH]1` [Imetit], in test [2], the midpoint of the response, the EC50, lay at 0.251 nM and the “agonist efficacy class in the Gβ1γ2 release assay” value (“agonist efficacy class” for short) was “full agonist”. Also, in test [2] (mean ± S.E.M.), the “intrinsic activity (α)” value was 1.1 ± 0.1. For the same compound, the negative logarithm of the Ki (pKi) at hH3R [1] (agonists) is on record as 8.6.
In the case of `CN1CCN(C(=O)c2cc3cc(Cl)ccc3[nH]2)CC1` [JNJ7777120], the “inhibition of Venus-Gβ1γ2 recruitment to masGRK3ct-Nluc in response to 1 µM histamine” value (“inhibition of Venus-Gβ1γ2 recruitment” for short) in test [2] is “ineffective”.
In general, pKB refers to the negative decadic logarithm of the KB, by convention in mol/L. Take `CCNC(=O)[C@H]1C[C@@](F)(c2ccc(CN3CCCC3)c(F)c2)C1` [PF03654746]: in test [2] (calculated from IC50 values, inhibition of histamine-induced (1 µM) BRET ratio, 10 min, mean ± S.E.M.), the pKB is given as 9.9 ± 0.1. In addition, in test [3] (setting [6]), the “Schild slope, VUF8328 (10 min)” value is listed as 1.2 ± 0.1 and the “pA2, VUF8328 (10 min)” value stood at 9.6 ± 0.2. Also, in test [3] (setting [7]), the “Schild slope, VUF8328 (0 min)” value was determined as 1.5 ± 0.2 and the “pA2, VUF8328 (0 min)” value was 9.3 ± 0.2. For the same compound, in test [3] (setting [8]), the “Schild slope, Imetit (0 min)” value is listed as 1.0 ± 0.1 and the “pA2, Imetit (0 min)” value was determined as 9.8 ± 0.1. Also, in test [3], the “type of antagonism after 10 min re-equilibration” value is recorded as “near-surmountable” and the “type of antagonism, response measured directly following agonist stimulation” value was “insurmountable antagonists”. Moreover, at hH3R [1] (antagonists), the pKi is on record as 9.3. The residence time result in the test with H3R is “approximately 15 min”. In test [4], the “RecT (receptor recovery time, 1/krec)” value was 3.6 ± 0.3 min and the “recovery of H3R-induced Gβ1γ2 release to steady-state level upon washout” value is less than 20 min. The “hH3R recovery slower than upon washout of iodophenpropit and pitolisant” value in test [4] (after antagonist washout) is recorded as 2 to 2.5 fold.
Turning to `Clc1ccc(CCCOCCCN2CCCCC2)cc1` [Pitolisant], the “inhibition of Venus-Gβ1γ2 recruitment” value in test [2] is “fully inhibited”. For the same compound, the “Schild slope, VUF8328 (10 min)” value in test [3] (setting [6]) is 1.1 ± 0.1. Besides, the “Schild slope, VUF8328 (0 min)” value in test [3] (setting [7]) is recorded as 1.4 ± 0.0. Also, the “Schild slope, Imetit (0 min)” value in test [3] (setting [8]) worked out at 1.1 ± 0.0. In addition, in test [3], the “type of antagonism after 10 min re-equilibration” value is given as “surmountable” and the “type of antagonism, response measured directly following agonist stimulation” value is “insurmountable antagonists”. In test [4], the “RecT (receptor recovery time, 1/krec)” value was determined as 1.7 ± 0.3 min and the “recovery of H3R-induced Gβ1γ2 release to steady-state level upon washout” value is less than 20 min. The “time to full recovery of hH3R responsiveness following washout” value with hH3R [5] is reported as more than 30 min.
`N=C(N)SCCCc1cnc[nH]1` [VUF8328]: in test [2], the “agonist efficacy class” value is “partial agonist” and the “pEC50 ± S.E.M.” value was 9.4 ± 0.1. The “intrinsic activity (α)” value in test [2] (mean ± S.E.M.) is 0.7 ± 0.2. The pKi on hH3R [1] (agonists) is recorded as 8.5.
Consider `c1ncc(CC2CCNCC2)[nH]1` [immepip], for which, in test [2], the “agonist efficacy class” value is “full agonist” and the “pEC50 ± S.E.M.” value is reported as 9.9 ± 0.1. In addition, the “intrinsic activity (α)” value in test [2] (mean ± S.E.M.) was 1.0 ± 0.1. Besides, the negative-log Ki (pKi) at hH3R [1] (agonists) is recorded as 8.8.
For `COc1ccc(CN(CCN(C)C)c2ccccn2)cc1` [mepyramine], the “inhibition of Venus-Gβ1γ2 recruitment” value in test [2] is recorded as “ineffective”.
Turning to `CNC(=NCCSCc1csc(N=C(N)N)n1)NC#N` [tiotidine], the “inhibition of Venus-Gβ1γ2 recruitment” value in test [2] is recorded as “ineffective”.

Values taken from article PMC6695674, “Bioluminescence Resonance Energy Transfer Based G Protein-Activation Assay to Probe Duration of Antagonism at the Histamine H3 Receptor” (International Journal of Molecular Sciences, 2019).
